Experimental data from paper PMC12298624, “Anti-Infective Properties, Cytotoxicity, and In Silico ADME Parameters of Novel 4′-(Piperazin-1-yl)benzanilides” (Pharmaceuticals, 2025).
Where two headings read alike, the source gives them in different places.

Columns and labels:
[1] = Resazurin-based in vitro cytotoxicity with HepG2 cells; assay type: cell-based, human; conditions: HepG2 cells; human hepatocarcinoma cells, 48 h
Protocol: The HepG2 cells were washed with DPBS (Dulbecco’s PBS without calcium and magnesium, Gibco, Cat #21600-044) and trypsinized with trypsin solution in DPBS. Trypsinization was stopped by adding culture medium, and after being stained with Trypan Blue (SORS Ukraine) cells were counted using a counting chamber (Hausser Scientific, Cat #3500). The cell suspension was placed in a falcon tube containing plating medium DMEM/High glucose with 1% fetal bovine serum, 100 units/mL penicillin, and 100 µg/mL streptomycin. Cells at a density of 250,000 cells/mL were seeded in sterile 384-well plates (Greiner Bio-One, Cat #781091) in a volume of […] and incubated at 37 °C and 5% CO2. Serial dilutions of ten 3-fold dilution steps of test and reference compounds covering a range from 100.0 to 0.005 µM were added to the wells, followed by incubation at 37 °C and 5% CO2 for 48 h. Then, resazurin (50 µM final concentration) was added and plates were incubated for another 3 h. The plates were read with a SpectraMax microplate reader (Molecular Devices Cooperation, Sunnyvale, CA, USA)) using an extinction wavelength of 555 nm and an emission wavelength of 570 nm. IC50 values were calculated using GraphPad Prism 9.0 charting software. Doxorubicin (Sigma Aldrich D1515) was used as control.

B. subtilis 168a = assay: MIC/MBC microbroth dilution (EUCAST); assay type: cell-based, Bacillus subtilis; conditions: Bacillus subtilis, 168A; for MIC: read-out: MIC
Protocol: (§1) Minimum inhibitory concentrations (MIC values) were obtained using the microbroth dilution method as stated in the EUCAST guidelines. Tests were conducted on cation adjusted Mueller–Hinton broth (caMHB) or agar (caMHA). These were prepared and stored following the manufacturer’s guidelines. Biological organisms were prepared via growth on either Luria–Bertani (LB) or cation adjusted Mueller–Hinton agar plates. These were grown for 24 h at 37 °C, except for Micrococcus luteus where MICs took longer to grow and as a consequence were read after 48 h once a clear positive control could be observed. For the MIC experiment, the bacteria were prepared using the McFarland 0.5 standard and diluted 1 in 100 or 1 in 10 in caMHB following EUCAST and CSLI guidelines for the preparation of bacteria. Testing of the compounds using the microbroth dilution method took place in 96-well plates. Serial 2-fold dilutions of compounds in caMHB covering a range from 256 µg/mL to 0.25 µg/mL were prepared. Bacteria preparations (McFarland) were added to the compound dilutions, further halving the compound concentrations. The plate was then incubated for 18 h at 37 °C. Controls for the MIC experiments included a bacterial growth (positive) control of bacteria and caMHB only and a media only (negative) control. After incubation, the plates were read, whereby the positive control of bacteria was visible and the negative control was clear of contamination. The last clear well, where there is no growth of bacteria, was counted as the MIC value. […] The lowest concentration without any bacterial growth was counted as the MBC value. The following pathogens were used: Pseudomonas aeruginosa NCTC 13437, Escherichia coli NCTC 13353, Bacillus subtilis 168a, Serratia marcescens NCTC 9940, Micrococcus luteus ATCC 10240, Staphylococcus aureus JE2 USA 300, Acinetobacter baumannii ATCC 19606, and Klebsiella pneumoniae ATCC 700603. A concentration range of 256 µg/mL to 0.25 µg/mL of a combination of ciprofloxacin and meropenem against E. coli 25922 was used as an antibiotic control to ensure correct dilution and performance of the assay.

[2] = Parallel artificial membrane permeability assay (PAMPA); conditions: PAMPA, PBS pH 7.4, 200 µM, 5 h, room temperature; for Papp at 5 h, 200 µM: pH 7.4, Pe
Protocol: With the high-throughput PAMPA the newly synthesized compounds were tested for their passive permeability through cell membranes without the influence of efflux pumps or transporter proteins. The assay was performed using a Corning® Gentest^TM Precoated PAMPA Plate System (Corning, Glendale, AZ, USA) with 96-well polystyrene plates. The bottom of the acceptor plate consists of a porous membrane, whereby the pores are lined with a lipid–oil–lipid triple layer. Stock solutions of each test compound at 10 mM were prepared in DMSO or methanol and diluted with phosphate-buffered saline (PBS at a pH of 7.4) to a final concentration of 200 µM. […] The donor plate (bottom plate) was filled with the compound solutions, whereby all compounds were tested in quadruplicates. Each well of the acceptor plate (top plate) was filled with PBS buffer. Donor and acceptor plates were combined and incubated at room temperature for 5 h. After that, the plates were separated and 150 µL of each well of both plates were transferred to 96-well UV plates (Greiner Bio-One). Absorption at different wavelengths covering a range from 200 to 300 nm was measured using a SpectraMax M3 UV plate reader. […] The plates were analyzed at the wavelength where the R2 value of the calibration curve was higher than 0.99 [47].
Recovery of compounds from donor and acceptor wells (mass retention) was calculated as shown in the equation below. Data were only accepted when recovery exceeded 70%. The equation is as follows:(3) R=1−[cDt×VD+cAt×VA]/(c0×VD) where

[3] = Resazurin-based in vitro cytotoxicity with L-6 cells; assay type: cell-based, rat; conditions: rat
Protocol: Serial drug dilutions of eleven 3-fold dilution steps covering a range from 100 to 0.002 µg/mL were prepared. After 70 h of incubation, the plates were inspected under an inverted microscope to assure growth of the controls and sterile conditions. […] The plates were read with a Spectramax Gemini XS microplate fluorometer (Molecular Devices Cooperation, Sunnyvale, CA, USA) using an excitation wavelength of 536 nm and an emission wavelength of 588 nm. IC50 values were calculated by linear regression from the sigmoidal dose–inhibition curves using SoftmaxPro software Version 8.2.1 (Molecular Devices Cooperation, Sunnyvale, CA, USA). Podophyllotoxin (Sigma P4405) was used as control.

S. aureus JE2 USA 300 = assay: MIC/MBC microbroth dilution (EUCAST); assay type: cell-based; conditions: Staphylococcus aureus, USA300, S. aureus JE2 USA 300
Protocol: as §1

P. aeruginosa NCTC 13437 = assay: MIC/MBC microbroth dilution (EUCAST); assay type: cell-based; conditions: Pseudomonas aeruginosa, NCTC13437
Protocol: as §1

S. marcescens NCTC 9940 = assay: MIC/MBC microbroth dilution (EUCAST); assay type: cell-based; conditions: Serratia marcescens, NCTC9940
Protocol: as §1

[4] = test system: K. pneumoniae ATCC 700603; assay: MIC/MBC microbroth dilution (EUCAST); assay type: cell-based; conditions: Klebsiella pneumoniae, ATCC700603
Protocol: as §1

E. coli NCTC 13353 = assay: MIC/MBC microbroth dilution (EUCAST); assay type: cell-based, Escherichia coli; conditions: Escherichia coli; for MBC: NCTC13353; for MIC: NCTC13353, read-out: MIC
Protocol: as §1

P. falciparum NF54 [5] = assay: In vitro microplate assay against P. falciparum NF54 (3H-hypoxanthine incorporation); assay type: cell-based, Plasmodium falciparum; conditions: Plasmodium falciparum, NF54, chloroquine-sensitive strain NF54, erythrocytic stages; read-out: P.f.NF54 IC50
Protocol: Serial drug dilutions of eleven 3-fold dilution steps covering a range from 100 to 0.002 µg/mL were prepared. […] After 48 h of incubation time, 0.05 mL of ^3H-hypoxanthine (=0.5 µCi) was added to each well of the plate. The plates were incubated for a further 24 h under the same conditions. Plates were then harvested using a BetaplateTM cell harvester (Wallac, Zurich, Switzerland). Red blood cells were transferred onto a glass fiber filter and then washed with distilled aqua demin. The dried filters were inserted into a plastic foil with 10 mL of scintillation fluid and counted in a BetaplateTM liquid scintillation counter (Wallac, Zurich, Switzerland). IC50 values were calculated from sigmoidal inhibition curves by linear regression using Microsoft Excel. […] Louis, MO, USA) was used as control.

M. luteus ATCC 10240 = assay: MIC/MBC microbroth dilution (EUCAST); assay type: cell-based, Micrococcus luteus; conditions: for MBC: read-out: MBC
Protocol: as §1

A. baumannii ATCC 19606 = assay: MIC/MBC microbroth dilution (EUCAST); assay type: cell-based, Acinetobacter baumannii; conditions: Acinetobacter baumannii; for MBC: ATCC19606; for MIC: ATCC19606, read-out: MIC
Protocol: as §1

P. falciparum NF54 [6] = test system: P. falciparum NF54; set-up: method as in PMID 34832891, PMID 36558954; conditions: Figure 1, earlier studies; ref [12],[13]; read-out: PfNF54 IC50; cited from earlier work
[7] = Micrococcus luteus, ATCC10240, M. luteus ATCC 10240
[8] = Micrococcus luteus, ATCC10240, M. luteus ATCC 10240, read-out: MIC

Row | SMILES | IC50 at 48 h [1] [µM] | MBC (B. subtilis 168a) [µg/mL] | MIC (B. subtilis 168a) [µg/mL] | Papp at 5 h, 200 µM [2] [×10⁻⁶ cm/s] | IC50 at 70 h [3] [µM] | MBC (S. aureus JE2 USA 300) [µg/mL] | MIC (S. aureus JE2 USA 300) [µg/mL] | MBC (P. aeruginosa NCTC 13437) [µg/mL] | MIC (P. aeruginosa NCTC 13437) [µg/mL] | MBC (S. marcescens NCTC 9940) [µg/mL] | MIC (S. marcescens NCTC 9940) [µg/mL] | MBC [4] [µg/mL] | MIC [4] [µg/mL] | MBC (E. coli NCTC 13353) [µg/mL] | MIC (E. coli NCTC 13353) [µg/mL] | IC50 (P. falciparum NF54 [5]) [µM] | MBC (M. luteus ATCC 10240; [7]) [µg/mL] | MIC (M. luteus ATCC 10240; [8]) [µg/mL] | MBC (A. baumannii ATCC 19606) [µg/mL] | MIC (A. baumannii ATCC 19606) [µg/mL] | further results
1 | O=C(c1cccc(C(F)(F)F)c1Oc1ccc(F)cc1)N1CCNCC1 [Compound 52, [2-(4-Fluorophenoxy)-3-(trifluoromethyl)phenyl](piperazin-1-yl)methanon] | > 100 | > 256 | > 256 | 8.35 | 136 | > 256 | > 256 | > 256 | > 256 | > 256 | > 256 | > 256 | > 256 | > 256 | > 256 | 23.2 | 256 | 256 | > 256 | 256 | 
2 | O=C(Nc1ccc(N2CCNCC2)cc1)c1cccc(C(F)(F)F)c1Oc1ccccc1 [Compound 58, 2-Phenoxy-N-[4-(piperazin-1-yl)phenyl]-3-(trifluoromethyl)benzamide] | 5.8 | 256 | 128 | 4.98 | 25.9 | 128 | 128 | > 256 | > 256 | > 256 | > 256 | 256 | 256 | > 256 | > 256 | 3.81 | 128 | 128 | > 256 | 256 | 
3 | O=C(Nc1ccc(N2CCNCC2)cc1)c1cccc([N+](=O)[O-])c1Oc1ccc(F)cc1 [Compound 61, 2-(4-Fluorophenoxy)-3-nitro-N-[4-(piperazin-1-yl)phenyl]benzamide] | 29.8 | > 256 | 256 | 8.36 | 43.8 | > 256 | 128 | > 256 | > 256 | > 256 | > 256 | > 256 | 256 | > 256 | > 256 | 4.1 | 128 | 128 | > 256 | 256 | 
4 | O=C(Nc1ccc(N2CCNCC2)cc1)c1cccc(C(F)(F)F)c1Sc1ccc(F)cc1 [Compound 62, 2-[(4-Fluorophenyl)sulfanyl]-N-[4-(piperazin-1-yl)phenyl]-3-(trifluoromethyl)benz-amide] | 9.3 | 256 | 128 | 6.51 | 13.1 | 128 | 128 | > 256 | > 256 | > 256 | > 256 | 256 | 256 | > 256 | > 256 | 1.66 | 128 | 128 | > 256 | 256 | Pe [2]: 4.41 10^−6 cm/s
5 | O=C(Nc1ccc(N2CCNCC2)cc1)c1ccccc1Oc1ccccc1 [Compound 64, 2-Phenoxy-N-[4-(piperazin-1-yl)phenyl]benzamide] | 12.3 | 256 | 128 | 7.67 | 40.6 | 64 | 32 | > 256 | > 256 | > 256 | > 256 | > 256 | 256 | > 256 | > 256 | 2.33 |  | 16 to 64 | > 256 | 256 | MIC (M. luteus ATCC 10240; M. luteus ATCC 10240): 32 µg/mL
6 | Nc1cccc(C(=O)Nc2ccc(N3CCNCC3)cc2)c1Oc1ccc(F)cc1 [Compound 65, 3-Amino-2-(4-fluorophenoxy)-N-[4-(piperazin-1-yl)phenyl]benzamide] | > 100 | > 256 | > 256 | 5.76 | 157 | 256 | 256 | > 256 | > 256 | > 256 | > 256 | > 256 | > 256 | > 256 | > 256 | 7 | > 256 | > 256 | > 256 | > 256 | 
7 | CC(C)(C)OC(=O)N1CCN(c2ccccc2NC(=O)c2cccc(C(F)(F)F)c2Oc2ccc(F)cc2)CC1 [MMV030666, tert-Butyl-4-{2-[2-(4-fluorophenoxy)-3-(trifluoromethyl)benzamido]phenyl}pipera-zine-1-carboxylate] |  |  |  |  |  |  |  |  |  |  |  |  |  |  |  |  |  |  |  |  | IC50 (P. falciparum NF54 [6]): 0.41 µM
